Where “and” joins values, the source holds several entries; their conditions need not be identical. Equal entries are not always repeated.
What was measured:
human CTSL = target: T1, human CTSL (Homo sapiens, UniProt P07711); assay: FRET enzymatic inhibition assay of CTSL (IC50 measurement); assay type: biochemical
T1 construct: made in house

TMPRSS2 = TMPRSS2 (Homo sapiens, UniProt O15393); assay: biochemical; assay type: biochemical
in vitro = details: human
human CTSB = target: T2, human CTSB (Homo sapiens, UniProt P07858); assay: biochemical
T2 construct: […]; made in house

[1] = substrate Cbz-Phe-Arg-AMC, pH 5.5, mean ± SD, four replicates

T1 sequence (P07711 114-333): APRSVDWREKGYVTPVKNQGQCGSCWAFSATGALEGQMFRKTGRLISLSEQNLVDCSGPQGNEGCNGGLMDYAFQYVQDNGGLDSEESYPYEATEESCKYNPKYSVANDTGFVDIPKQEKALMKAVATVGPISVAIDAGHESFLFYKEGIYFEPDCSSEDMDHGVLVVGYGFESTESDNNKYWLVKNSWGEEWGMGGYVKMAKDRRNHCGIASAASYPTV
Sequence of TMPRSS2 (O15393 256-492): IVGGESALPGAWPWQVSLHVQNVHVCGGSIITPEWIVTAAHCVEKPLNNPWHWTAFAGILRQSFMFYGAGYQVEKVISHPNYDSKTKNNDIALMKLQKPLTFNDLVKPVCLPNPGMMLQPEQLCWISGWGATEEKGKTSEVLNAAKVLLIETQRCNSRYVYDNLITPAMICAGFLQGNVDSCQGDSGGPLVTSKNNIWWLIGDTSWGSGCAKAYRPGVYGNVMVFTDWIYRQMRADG
Sequence of TMPRSS2 (O15393 other isoform, or with tags, fused parts or gaps): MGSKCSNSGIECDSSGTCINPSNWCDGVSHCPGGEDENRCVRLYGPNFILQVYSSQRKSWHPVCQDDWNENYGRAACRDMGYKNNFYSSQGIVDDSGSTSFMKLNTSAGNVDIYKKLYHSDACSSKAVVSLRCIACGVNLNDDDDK

## NC(N)=Nc1ccc(C(=O)OCCN2CCN(C(=O)N[C@@H](Cc3ccccc3)C(=O)N[C@H](/C=C/S(=O)(=O)c3ccccc3)CCc3ccccc3)CC2)cc1 [212-148]
Human CTSL; 212-148 250 nM, Fig. 5c
  Inhibition: CTSL: 99.87% and 99.66% and 100.24%
  inhibition at 0.25 µM: 100%
Human CTSL; 212-148 500 nM, Fig. 5c
  Inhibition: CTSL: 100.03% and 100.68% and 99.61%
  inhibition at 0.5 µM: 99.9%
Human CTSL; 212-148 1000 nM, Fig. 5c
  Inhibition: CTSL: 100.34% and 99.76% and 100.32%
  inhibition at 1 µM: 99.5%
Human CTSL; 212-148 2000 nM, Fig. 5c
  Inhibition: CTSL: 100.56% and 99.97%
  inhibition at 2 µM: 99%
Human CTSL; [1]
  IC50: 2.13 nM
TMPRSS2; 0.5 nM TMPRSS2, 10 μM substrate, mean ± SD, four replicates
  IC50: 1380 nM
TMPRSS2; 212-148 15.2588 nM, Fig. 5b
  Inhibition: TMPRSS2: 5.04% and 4.06% and 3.14%
  inhibition at 0.0152588 µM: 3.01%
TMPRSS2; 212-148 30.5176 nM, Fig. 5b
  Inhibition: TMPRSS2: 3.05% and 3.16% and 4.84%
  inhibition at 0.0305176 µM: 4.19%
TMPRSS2; 212-148 61.0352 nM, Fig. 5b
  Inhibition: TMPRSS2: 6.85% and 6.15% and 3.83%
  inhibition at 0.0610352 µM: 6.56%
TMPRSS2; 212-148 122.07 nM, Fig. 5b
  Inhibition: TMPRSS2: 7.87% and 8.22% and 8.32%
  inhibition at 0.12207 µM: 8.2%
TMPRSS2; 212-148 244.141 nM, Fig. 5b
  Inhibition: TMPRSS2: 13.88% and 12.56% and 13.21%
  inhibition at 0.244141 µM: 13.6%
TMPRSS2; 212-148 488.281 nM, Fig. 5b
  Inhibition: TMPRSS2: 22.52% and 22.28% and 23.91%
  inhibition at 0.488281 µM: 23.3%
TMPRSS2; 212-148 976.562 nM, Fig. 5b
  Inhibition: TMPRSS2: 40.08% and 39.01% and 40.36%
  inhibition at 0.976562 µM: 39.7%
TMPRSS2; 212-148 1953.12 nM, Fig. 5b
  Inhibition: TMPRSS2: 63.03% and 61.74% and 62.43%
  inhibition at 1.95312 µM: 61.1%
TMPRSS2; 212-148 3906.25 nM, Fig. 5b
  Inhibition: TMPRSS2: 83.44% and 83.94% and 85.49%
  inhibition at 3.90625 µM: 83.6%
TMPRSS2; 212-148 7812.5 nM, Fig. 5b
  Inhibition: TMPRSS2: 95.50% and 95.52% and 96.33%
  inhibition at 7.8125 µM: 94.8%
TMPRSS2; 212-148 15625 nM, Fig. 5b
  Inhibition: TMPRSS2: 98.35% and 96.17% and 99.57%
  inhibition at 15.625 µM: 97.8%
TMPRSS2; 212-148 31250 nM, Fig. 5b
  Inhibition: TMPRSS2: 98.24% and 98.70% and 100.24%
  inhibition at 31.25 µM: 97.8%
TMPRSS2; 212-148 62500 nM, Fig. 5b
  Inhibition: TMPRSS2: 98.19% and 99.09% and 100.93%
  inhibition at 62.5 µM: 98%
TMPRSS2; 212-148 125000 nM, Fig. 5b
  Inhibition: TMPRSS2: 98.93% and 99.03% and 99.02%
  inhibition at 125 µM: 98.3%
TMPRSS2; 212-148 250000 nM, Fig. 5b
  Inhibition: TMPRSS2: 99.15% and 99.14% and 99.60%
  inhibition at 250 µM: 98.1%
TMPRSS2; 212-148 500000 nM, Fig. 5b
  Inhibition: TMPRSS2: 100.68% and 99.05% and 100.75%
  inhibition at 500 µM: 100%
TMPRSS2; 212-148 1000000 nM, Fig. 5b
  Inhibition: TMPRSS2: 100.30% and 98.80% and 100.85%
  inhibition at 1000 µM: 99.8%
TMPRSS2; 212-148 2000000 nM, Fig. 5b
  Inhibition: TMPRSS2: 100.85% and 100.05% and 100.27%
  inhibition at 2000 µM: 99%
In vitro
  CC50: 347000 nM
Human CTSB; 212-148 0.12207 nM, Fig. 5c
  Inhibition: CTSB: 8.76% and 9.57% and 12.06%
  inhibition at 0.00012207 µM: 9.32%
Human CTSB; 212-148 0.976562 nM, Fig. 5c
  Inhibition: CTSB: 5.21% and 6.50% and 2.50% and 12.34%
Human CTSB; 212-148 1.95312 nM, Fig. 5c
  Inhibition: CTSB: 10.95% and 10.99% and 12.44%
  inhibition at 0.00195312 µM: 20.7%
Human CTSB; 212-148 7.8125 nM, Fig. 5c
  Inhibition: CTSB: 6.62% and 15.92% and 9.45% and 14.93%
Human CTSB; 212-148 15.625 nM, Fig. 5c
  Inhibition: CTSB: 29.27% and 18.56% and 15.75%
  inhibition at 0.015625 µM: 20.2%
Human CTSB; 212-148 31.25 nM, Fig. 5c
  Inhibition: CTSB: 38.89% and 26.87% and 33.63%
  inhibition at 0.03125 µM: 31.5%
Human CTSB; 212-148 62.5 nM, Fig. 5c
  Inhibition: CTSB: 49.58% and 58.40% and 54.67%
  inhibition at 0.0625 µM: 52.1%
Human CTSB; 212-148 125 nM, Fig. 5c
  Inhibition: CTSB: 77.49% and 76.59% and 75.86%
  inhibition at 0.125 µM: 76.8%
Human CTSB; 212-148 250 nM, Fig. 5c
  Inhibition: CTSB: 92.13% and 95.19% and 101.10%
  inhibition at 0.25 µM: 95.4%
Human CTSB; 212-148 500 nM, Fig. 5c
  Inhibition: CTSB: 95.97% and 101.09% and 103.70%
  inhibition at 0.5 µM: 101%
Human CTSB; 212-148 1000 nM, Fig. 5c
  Inhibition: CTSB: 100.47% and 101.20% and 101.53%
  inhibition at 1 µM: 98.8%
Human CTSB; 212-148 2000 nM, Fig. 5c
  Inhibition: CTSB: 98.63% and 99.08% and 103.05%
  inhibition at 2 µM: 102%
Human CTSB; [1]
  IC50: 64.1 nM

— paper PMC10663540, “Structure-based discovery of dual pathway inhibitors for SARS-CoV-2 entry” (Nature Communications, 2023)
